Reference: patent US11779560B2 (priority 2020, dated 2023)

Key:
Settings in all cases: 10-100 μM concentrations
[1] = tested on: HMEC-1 human dermal endothelial cells; experiment: Cell TiterGlo ATP Luminescent Cell Viability assay (total cellular ATP); format: cell-based
Description: The Cell TiterGlo ATP Luminescent Cell Viability assay (Promega Cat. #G7571) was run to measure total cellular ATP in response to compound treatment. Assays were performed using HMEC-1 human dermal endothelial cells. Compounds were screened using 8-point ½ log dilutions in duplicate in the presence of vehicle.

[2] = tested on: mitochondrial electron transport chain and ATP synthase (Complex I-V); experiment: MitoCheck Complex I-V activity assays in isolated mitochondria; format: biochemical, bovine
Description: MitoCheck Complex I-V activity assays were conducted in an Agilent Seahorse XFe96 analyzer to determine the effects of compounds on the mitochondrial electron transport chain and ATP synthase in isolated mitochondria. Compounds were screened in a dose dependent manner using 10-point ½ log dilutions in quadruplicate along with a […] for each of the five complexes.
Complex I activity was determined using an assay that measures the rotenone-sensitive rate of NADH oxidation by complex I in isolated bovine heart mitochondria. To prevent oxidation of ubiquinol by complex III, KCN (1 mM) was present to inhibit the downstream electron transport chain. […]
Complex II activity was determined using an assay that measures the succinate dependent rate of DCPIP reduction in isolated bovine heart mitochondria. […]
Complex III activity was determined using an assay measures the rate of cytochrome c reduction by the passage of electrons from complex II to complex III via ubiquinone in isolated bovine heart mitochondria. […]
Complex IV activity was determined using an assay that measures the rate of cytochromec oxidation by complex IV in isolated bovine heart mitochondria. […]
Complex V activity was determined using an assay that measures the rate of […] resulting from a series of coupled reactions linked to the hydrolysis of ATP by complex V in isolated bovine heart mitochondria. […]

[3] = tested on: HMEC-1 human dermal endothelial cells; experiment: Mitochondrial stress test (Agilent Seahorse XFe96); format: cell-based
Description: A mitochondrial stress test was also conducted to determine the effects of the experimental compounds on cellular mitochondria. Assays were conducted using HMEC-1 human dermal endothelial cells optimized for use with the Agilent Seahorse XFe96 analyzer. HMEC-1 cells were obtained from ATCC and cultured in accordance with the supplier's guidelines: complete cell culture media consisted of MCD 131 supplemented with 10 ng/ml EGF 1 μg/ml hydrocortisone, 10 mM glutamine, 10% FBS, and 1% penicillin/streptomycin. To determine optimal cell seeding densities, cells were seeded in Agilent XF96 cell culture microplates at 80,000 cells/well at the highest concentration. […] Cell viability was assessed using trypan blue exclusion. […] (non-CO2) for 1 hour and imaged with a Cytation 5 imaging multimode plate reader (BioTek instruments) and analyzed using Prism 9.0 (GraphPad Software.) The stress test profile cycled through 18 minute exposures to oligomycin 1 μg/ml, FCCP 2 μM and antimycin A 10 μM/rotenone 1 μM. At the completion of the mitochondrial stress test, cells were imaged and Hoechst positive nuclei were quantified using the Seahorse Cell Analysis software. All data were analyzed using Wave Analysis software (version 2.6.1.53) and Prism 9.0 (GraphPad software). […]

O=C(CO)NCCCN[C@@H]1CO[C@H]2[C@@H]1OC[C@@H]2O[N+](=O)[O-] [CR-0305, (3S,3aS,6R,6aR)-6-((3-(2-hydroxyacetamido)propyl)amino)hexahydrofuro[3,2-b]furan-3-yl nitrate]
No significant toxicity: Toxicity, effect of drug on ATP synthesis [1] | Toxicity, MitoCheck Complex I-V activity [2] | Toxicity, mitochondrial stress test [3]
